The assay has as its system BDF1 mice, P388 leukemia ip, median survival T/C. Description: NCI In Vivo Anticancer Drug Screen. Data for tumor model P388 Leukemia (intraperitoneal) in B6D2F1 (BDF1) mice. The settings on record: endpoint: median survival time, higher = longer survival. Put shortly:
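Antitumour effect was judged in vivo: survival in drug-treated mice, normalised to that of vehicle-dosed controls, gives the reported T/C.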

[1] abbreviates: dose: 100.0 mg/kg/injection, schedule: Q04DX003 (ip), vehicle: saline with Tween-80.
[2] abbreviates: dose: 200.0 mg/kg/injection, schedule: Q04DX003 (ip), vehicle: saline with Tween-80.
Setting [3] is: dose: 400.0 mg/kg/injection, schedule: Q04DX003 (ip), vehicle: saline with Tween-80.
The mark [4] stands for this setting: dose: 50.0 mg/kg/injection, schedule: Q01DX009 (ip), vehicle: saline with Tween-80.
[5] abbreviates: dose: 100.0 mg/kg/injection, schedule: Q01DX009 (ip), vehicle: saline with Tween-80.
Where [6] appears, read: dose: 200.0 mg/kg/injection, schedule: Q01DX009 (ip), vehicle: saline with Tween-80.
Setting [7] is: dose: 100.0 mg/kg/injection, schedule: Q01DX009 (ip), vehicle: Klucel (hydroxypropylcellulose) (HPC).
The mark [8] stands for this setting: dose: 200.0 mg/kg/injection, schedule: Q01DX009 (ip), vehicle: Klucel (hydroxypropylcellulose) (HPC).
The mark [9] stands for this setting: dose: 400.0 mg/kg/injection, schedule: Q01DX009 (ip), vehicle: Klucel (hydroxypropylcellulose) (HPC).
The mark [10] stands for this setting: dose: 25.0 mg/kg/injection, schedule: Q01DX009 (ip), vehicle: Klucel (hydroxypropylcellulose) (HPC).
The mark [11] stands for this setting: dose: 50.0 mg/kg/injection, schedule: Q01DX009 (ip), vehicle: Klucel (hydroxypropylcellulose) (HPC).
Where [12] appears, read: dose: 100.0 mg/kg/injection, schedule: Q04DX003 (ip), vehicle: Klucel (hydroxypropylcellulose) (HPC).
Setting [13] is: dose: 200.0 mg/kg/injection, schedule: Q04DX003 (ip), vehicle: Klucel (hydroxypropylcellulose) (HPC).

Values joined by “and” are separate entries in the source; they are usually repeats but may differ in a detail not shown here. Equal entries are not always repeated. Inconclusive results and toxic doses are left out.

`COc1cc(/C=C/C(=O)c2ccc3c(c2)OCO3)ccc1OCc1ccccc1`: the T/C was 100 % of control (dose: 6.25 mg/kg/injection, schedule: Q01DX009 (ip), vehicle: water); 100 % of control (dose: 12.5 mg/kg/injection, schedule: Q01DX009 (ip), vehicle: water); 106 % of control and 108 % of control (dose: 25.0 mg/kg/injection, schedule: Q01DX009 (ip), vehicle: water); 95 % of control and 110 % of control (dose: 50.0 mg/kg/injection, schedule: Q01DX009 (ip), vehicle: water); 86 % of control (dose: 50.0 mg/kg/injection, schedule: Q04DX003 (ip), vehicle: water); 95 % of control (dose: 100.0 mg/kg/injection, schedule: Q01DX009 (ip), vehicle: water). For the same compound, the T/C is, setting by setting: (dose: 100.0 mg/kg/injection, schedule: Q04DX003 (ip), vehicle: water) 100 % of control; (dose: 200.0 mg/kg/injection, schedule: Q01DX009 (ip), vehicle: water) 97 % of control and 110 % of control; (dose: 200.0 mg/kg/injection, schedule: Q04DX003 (ip), vehicle: water) 87 % of control; (dose: 400.0 mg/kg/injection, schedule: Q04DX003 (ip), vehicle: water) 89 % of control.
Turning to `CC(/C=C/c1ccccc1)=Nc1ccc(C)cc1`, the T/C was 104 % of control under setting [1], 101 % of control under setting [2] and 104 % of control under setting [3].
With `C=CCn1c2ccccc2c2cc3cnccc3c(C)c21`, the T/C (dose: 50.0 mg/kg/injection, schedule: Q04DX003 (ip), vehicle: saline sonified) is 95 % of control; the T/C (dose: 100.0 mg/kg/injection, schedule: Q04DX003 (ip), vehicle: saline sonified) was 90 % of control; the T/C (dose: 200.0 mg/kg/injection, schedule: Q04DX003 (ip), vehicle: saline sonified) is 95 % of control.
For the compound `CC1=CC(C(O)C(C)C)C(C)(Cc2ccc(C)cn2)NC1c1ccccc1` (stereo not given), the T/C is 102 % of control (dose: 6.25 mg/kg/injection, schedule: Q04DX003 (ip), vehicle: saline with Tween-80); 102 % of control (dose: 12.5 mg/kg/injection, schedule: Q04DX003 (ip), vehicle: saline with Tween-80); 109 % of control (dose: 25.0 mg/kg/injection, schedule: Q04DX003 (ip), vehicle: saline with Tween-80).
On to `CC12COC(=O)CC1CCC1C2CCC2(C)C1CCC2(C)O` (stereo not given), for which the T/C was 90 % of control under setting [4], 95 % of control under setting [5] and 100 % of control under setting [6].
As to `Cc1ccc(CSc2ssc(=S)c2-c2ccccc2)cc1`, the T/C was 104 % of control (dose: 100.0 mg/kg/injection, schedule: Q01DX001 (ip), vehicle: Klucel (hydroxypropylcellulose) (HPC)); 110 % of control under setting [7]; 104 % of control (dose: 200.0 mg/kg/injection, schedule: Q01DX001 (ip), vehicle: Klucel (hydroxypropylcellulose) (HPC)); 110 % of control under setting [8]; 109 % of control (dose: 400.0 mg/kg/injection, schedule: Q01DX001 (ip), vehicle: Klucel (hydroxypropylcellulose) (HPC)); 115 % of control under setting [9].
On to `CCC[P+](c1ccccc1)(c1ccccc1)c1ccccc1`, for which the T/C was 111 % of control (dose: 2.0 mg/kg/injection, schedule: Q01DX009 (ip), vehicle: saline); 115 % of control (dose: 4.0 mg/kg/injection, schedule: Q01DX009 (ip), vehicle: saline); 123 % of control (dose: 8.0 mg/kg/injection, schedule: Q01DX009 (ip), vehicle: saline).
On to `COCCOC(C)C(=O)C(O)S(=O)(=O)O` (stereo not given), for which the T/C is, setting by setting: (dose: 132.0 mg/kg/injection, schedule: Q01DX009 (ip), vehicle: saline) 150 % of control; (dose: 200.0 mg/kg/injection, schedule: Q01DX009 (ip), vehicle: saline) 155 % of control; (dose: 300.0 mg/kg/injection, schedule: Q01DX009 (ip), vehicle: saline) 155 % of control.
Turning to `CCCCSc1ncnc2c1ncn2C1CCCCO1` (stereo not given), the T/C (dose: 100.0 mg/kg/injection, schedule: Q01DX009 (ip), vehicle: saline sonified) is 90 % of control; the T/C under setting [1] is 87 % of control; the T/C (dose: 200.0 mg/kg/injection, schedule: Q01DX009 (ip), vehicle: saline sonified) is 122 % of control; the T/C under setting [2] is 100 % of control; the T/C (dose: 400.0 mg/kg/injection, schedule: Q01DX009 (ip), vehicle: saline sonified) was 100 % of control; the T/C under setting [3] is 100 % of control.
Turning to `COc1ccc(Cl)cc1NC(=O)NNC(=O)C(=O)Nc1ccc(F)cc1`, the T/C was 91 % of control (dose: 50.0 mg/kg/injection, schedule: Q01DX005 (ip), vehicle: saline with Tween-80); 91 % of control (dose: 100.0 mg/kg/injection, schedule: Q01DX005 (ip), vehicle: saline with Tween-80); 100 % of control (dose: 200.0 mg/kg/injection, schedule: Q01DX005 (ip), vehicle: saline with Tween-80).
For `Nc1ncnc2c1cnn2Cc1ccc(Cl)cc1`, the T/C was 118 % of control (dose: 12.5 mg/kg/injection, schedule: Q04DX003 (ip), vehicle: Klucel (hydroxypropylcellulose) (HPC)); 91 % of control and 100 % of control (dose: 16.5 mg/kg/injection, schedule: Q04DX003 (ip), vehicle: Klucel (hydroxypropylcellulose) (HPC)); 90 % of control under setting [10]; 91 % of control and 100 % of control (dose: 25.0 mg/kg/injection, schedule: Q04DX003 (ip), vehicle: Klucel (hydroxypropylcellulose) (HPC)); 95 % of control (dose: 37.5 mg/kg/injection, schedule: Q04DX003 (ip), vehicle: Klucel (hydroxypropylcellulose) (HPC)); 95 % of control under setting [11]. For the same compound, the T/C (dose: 50.0 mg/kg/injection, schedule: Q04DX003 (ip), vehicle: Klucel (hydroxypropylcellulose) (HPC)) was 104 % of control.
For the compound `CC(C)C(C=O)C(O)(C(F)(F)F)C(F)(F)Cl` (stereo not given), the T/C is 95 % of control (dose: 12.5 mg/kg/injection, schedule: Q01DX009 (ip), vehicle: saline) and 100 % of control (dose: 25.0 mg/kg/injection, schedule: Q01DX009 (ip), vehicle: saline).
Take `CCOC(=O)CC(C)=O.[Cu+2]`: the T/C was 100 % of control (dose: 6.25 mg/kg/injection, schedule: Q01DX009 (ip), vehicle: Klucel (hydroxypropylcellulose) (HPC)) and 90 % of control (dose: 12.5 mg/kg/injection, schedule: Q01DX009 (ip), vehicle: Klucel (hydroxypropylcellulose) (HPC)).
As for `CC(=O)Nc1ccccc1F`, the T/C reads like this: under setting [7], 100 % of control; under setting [12], 87 % of control; under setting [8], 91 % of control; under setting [13], 104 % of control; under setting [9], 100 % of control.
As to `CC1(C)OCC(/C=C/C=N/Nc2ccc([N+](=O)[O-])cc2)O1` (stereo not given), the T/C runs as follows: (dose: 100.0 mg/kg/injection, schedule: Q01DX001 (ip), vehicle: saline with Tween-80) 105 % of control; (dose: 200.0 mg/kg/injection, schedule: Q01DX001 (ip), vehicle: saline with Tween-80) 110 % of control.
For `CC1(C)N=C(N)N=C(N)N1c1ccc(-c2ccccc2)cc1`, the T/C was 99 % of control under setting [10] and 106 % of control under setting [11].
`CN(C)P(N)(N)=O`: the T/C reads like this: under setting [12], 100 % of control; under setting [13], 100 % of control; (dose: 400.0 mg/kg/injection, schedule: Q04DX003 (ip), vehicle: Klucel (hydroxypropylcellulose) (HPC)) 95 % of control.
Regarding `CCCN(Cc1ccc(CN(CCC)C(=O)C(Cl)Cl)cc1)C(=O)C(Cl)Cl`, the T/C under setting [1] is 93 % of control, the T/C under setting [2] was 95 % of control and the T/C under setting [3] was 88 % of control.
For the compound `c1ccc(-c2nnc3ncccn23)cc1`, the T/C was 96 % of control under setting [4], 93 % of control under setting [5] and 93 % of control under setting [6].
Regarding `C=CCc1c(C)cc(C)c(C)c1O`, the T/C was 96 % of control (dose: 100.0 mg/kg/injection, schedule: Q04DX003 (sc), vehicle: olive oil, sesame oil, peanut oil); 92 % of control (dose: 200.0 mg/kg/injection, schedule: Q04DX003 (sc), vehicle: olive oil, sesame oil, peanut oil); 92 % of control (dose: 400.0 mg/kg/injection, schedule: Q04DX003 (sc), vehicle: olive oil, sesame oil, peanut oil).

Values taken from PubChem BioAssay AID328 (DTP/NCI, 2004).
